Experimental data taken from PubChem BioAssay AID1745844 (Carcinogenic Potency Database (CPDB), 2022).
Where “and” joins values, the source holds several entries; their conditions need not be identical. Equal entries are not always repeated. Calls of active or inactive are those of the source. The rule behind the calls is not given here.

System: rodent lifetime carcinogenesis bioassay, tumor incidence TD50
Assay: chronic cancer bioassays in animals – CPDB, compiled studies (AID 1745844)

NC(=O)NNc1ccccc1
TD50 (mouse, strain Swiss albino, females, in drinking water, site: liver, lesion: angioma, dosed 79 weeks, study length 79 weeks): 2670 mg/kg/day (inactive)
TD50 (mouse, strain Swiss albino, females, in drinking water, site: liver, lesion: angiosarcoma, dosed 79 weeks, study length 79 weeks): 1980 mg/kg/day (inactive)
TD50 (mouse, strain Swiss albino, females, in drinking water, site: lung, lesion: adenocarcinoma, dosed 79 weeks, study length 79 weeks): 1250 mg/kg/day
TD50 (mouse, strain Swiss albino, females, in drinking water, site: lung, lesion: adenoma, dosed 79 weeks, study length 79 weeks): 150 mg/kg/day
TD50 (mouse, strain Swiss albino, females, in drinking water, site: lung, lesion: several types, types named in the paper, dosed 79 weeks, study length 79 weeks): 155 mg/kg/day
TD50 (mouse, strain Swiss albino, males, in drinking water, site: liver, lesion: angiosarcoma, dosed 79 weeks, study length 79 weeks): 2000 mg/kg/day (inactive)
TD50 (mouse, strain Swiss albino, males, in drinking water, site: liver, lesion: several types, types named in the paper, dosed 79 weeks, study length 79 weeks): 1790 mg/kg/day
TD50 (mouse, strain Swiss albino, males, in drinking water, site: lung, lesion: adenoma, dosed 79 weeks, study length 79 weeks): 158 mg/kg/day
TD50 (mouse, strain Swiss albino, males, in drinking water, site: lung, lesion: several types, types named in the paper, dosed 79 weeks, study length 79 weeks): 176 mg/kg/day

CCCOC(=O)c1cc(O)c(O)c(O)c1
TD50 (mouse, strain B6C3F1, females, in feed, site: liver, lesion: hepatocellular adenoma + hepatocellular carcinoma + neoplastic nodule, dosed 103 weeks, study length 105 weeks): 21400 mg/kg/day
TD50 (mouse, strain B6C3F1, females, in feed, site: liver, lesion: hepatocellular adenoma, dosed 103 weeks, study length 105 weeks): 8260 mg/kg/day (inactive)
TD50 (mouse, strain B6C3F1, females, in feed, site: lung, lesion: alveolar/bronchiolar adenoma + alveolar/bronchiolar carcinoma, dosed 103 weeks, study length 105 weeks): 44300 mg/kg/day
TD50 (mouse, strain B6C3F1, males, in feed, site: all sites, lesion: lymphoma, histiocytic type, dosed 103 weeks, study length 105 weeks): 15100 mg/kg/day
TD50 (mouse, strain B6C3F1, males, in feed, site: all sites, lesion: lymphoma, dosed 103 weeks, study length 105 weeks): 6540 mg/kg/day (inactive)
TD50 (mouse, strain B6C3F1, males, in feed, site: all sites, lesion: malignant lymphoma, dosed 103 weeks, study length 105 weeks): 12100 mg/kg/day
TD50 (mouse, strain B6C3F1, males, in feed, site: any site (literature study), lesion: several types, types named in the paper, dosed 103 weeks, study length 105 weeks): 3640 mg/kg/day
TD50 (mouse, strain B6C3F1, males, in feed, site: lung, lesion: alveolar/bronchiolar adenoma + alveolar/bronchiolar carcinoma, dosed 103 weeks, study length 105 weeks): 55600 mg/kg/day
carcinogen call (rat, strain F344/DuCrj, males, in feed, site: esophagus, lesion: one or several types, types not named, dosed 52 weeks, study length 52 weeks): negative (inactive)
carcinogen call (rat, strain F344/DuCrj, males, in feed, site: forestomach, lesion: one or several types, types not named, dosed 52 weeks, study length 52 weeks): negative (inactive)
carcinogen call (rat, strain F344/DuCrj, males, in feed, site: liver, lesion: one or several types, types not named, dosed 52 weeks, study length 52 weeks): negative (inactive)
TD50 (rat, strain Fischer 344, females, in feed, site: mammary gland, lesion: adenoma, dosed 103 weeks, study length 105 weeks): 8080 mg/kg/day (inactive)
TD50 (rat, strain Fischer 344, males, in feed, site: adrenal gland, lesion: pheochromocytoma + pheochromocytoma, malignant, dosed 103 weeks, study length 105 weeks): 613 mg/kg/day
TD50 (rat, strain Fischer 344, males, in feed, site: adrenal gland, lesion: pheochromocytoma, dosed 103 weeks, study length 105 weeks): 613 mg/kg/day
TD50 (rat, strain Fischer 344, males, in feed, site: pancreatic islets, lesion: islet-cell adenoma + islet-cell carcinoma, dosed 103 weeks, study length 105 weeks): 840 mg/kg/day
TD50 (rat, strain Fischer 344, males, in feed, site: pancreatic islets, lesion: islet-cell adenoma, dosed 103 weeks, study length 105 weeks): 749 mg/kg/day (inactive)
TD50 (rat, strain Fischer 344, males, in feed, site: preputial gland, lesion: adenocarcinoma + adenoma + carcinoma, dosed 103 weeks, study length 105 weeks): 1040 mg/kg/day
TD50 (rat, strain Fischer 344, males, in feed, site: thyroid gland, lesion: follicular-cell adenoma + follicular-cell carcinoma, dosed 103 weeks, study length 105 weeks): 6870 mg/kg/day

ClC1=C(Cl)C2(Cl)C3C(Cl)C(Cl)CC3C1(Cl)C2(Cl)Cl (centres undefined)
TD50 (mouse, strain B6C3F1, females, in feed, site: any site (literature study), lesion: several types, types named in the paper, dosed 80 weeks, study length 90 weeks): 5.16 mg/kg/day
TD50 (mouse, strain B6C3F1, females, in feed, site: liver, lesion: hepatocellular adenoma + hepatocellular carcinoma + neoplastic nodule, dosed 80 weeks, study length 90 weeks): 4.89 mg/kg/day
TD50 (mouse, strain B6C3F1, females, in feed, site: liver, lesion: hepatocellular carcinoma, dosed 80 weeks, study length 89 weeks): 5.28 mg/kg/day
TD50 (mouse, strain B6C3F1, females, in feed, site: liver, lesion: hepatocellular carcinoma, dosed 80 weeks, study length 90 weeks): 4.89 mg/kg/day
TD50 (mouse, strain B6C3F1, females, in feed, site: lung, lesion: alveolar/bronchiolar adenoma + alveolar/bronchiolar carcinoma, dosed 80 weeks, study length 90 weeks): 228 mg/kg/day
TD50 (mouse, strain B6C3F1, males, in feed, site: any site (literature study), lesion: several types, types named in the paper, dosed 80 weeks, study length 90 weeks): 2.31 mg/kg/day
TD50 (mouse, strain B6C3F1, males, in feed, site: liver, lesion: hepatocellular adenoma + hepatocellular carcinoma + neoplastic nodule, dosed 80 weeks, study length 90 weeks): 2.15 mg/kg/day
TD50 (mouse, strain B6C3F1, males, in feed, site: liver, lesion: hepatocellular adenoma, dosed 60 weeks, study length 61 weeks): 0.903 mg/kg/day
carcinogen call (mouse, strain B6C3F1, males, in feed, site: liver, lesion: hepatocellular adenoma, dosed 60 weeks, study length 68 weeks): positive
TD50 (mouse, strain B6C3F1, males, in feed, site: liver, lesion: hepatocellular adenoma, dosed 60 weeks, study length 72 weeks): 0.727 mg/kg/day
carcinogen call (mouse, strain B6C3F1, males, in feed, site: liver, lesion: hepatocellular adenoma, dosed 68 weeks, study length 68 weeks): positive
TD50 (mouse, strain B6C3F1, males, in feed, site: liver, lesion: hepatocellular adenoma, dosed 72 weeks, study length 72 weeks): 1.96 mg/kg/day
TD50 (mouse, strain B6C3F1, males, in feed, site: liver, lesion: hepatocellular carcinoma, dosed 60 weeks, study length 61 weeks): 1.91 mg/kg/day
TD50 (mouse, strain B6C3F1, males, in feed, site: liver, lesion: hepatocellular carcinoma, dosed 60 weeks, study length 68 weeks): 1.49 mg/kg/day
TD50 (mouse, strain B6C3F1, males, in feed, site: liver, lesion: hepatocellular carcinoma, dosed 60 weeks, study length 72 weeks): 2.67 mg/kg/day
TD50 (mouse, strain B6C3F1, males, in feed, site: liver, lesion: hepatocellular carcinoma, dosed 68 weeks, study length 68 weeks): 0.878 mg/kg/day
TD50 (mouse, strain B6C3F1, males, in feed, site: liver, lesion: hepatocellular carcinoma, dosed 72 weeks, study length 72 weeks): 2.96 mg/kg/day
TD50 (mouse, strain B6C3F1, males, in feed, site: liver, lesion: hepatocellular carcinoma, dosed 80 weeks, study length 89 weeks): 2.48 mg/kg/day
TD50 (mouse, strain B6C3F1, males, in feed, site: liver, lesion: hepatocellular carcinoma, dosed 80 weeks, study length 90 weeks): 2.15 mg/kg/day
TD50 (mouse, strain B6C3F1, males, in feed, site: liver, lesion: several types, types named in the paper, dosed 60 weeks, study length 61 weeks): 0.583 mg/kg/day
carcinogen call (mouse, strain B6C3F1, males, in feed, site: liver, lesion: several types, types named in the paper, dosed 60 weeks, study length 68 weeks): positive
carcinogen call (mouse, strain B6C3F1, males, in feed, site: liver, lesion: several types, types named in the paper, dosed 68 weeks, study length 68 weeks): positive
TD50 (mouse, strain B6C3F1, males, in feed, site: liver, lesion: several types, types named in the paper, dosed 72 weeks, study length 72 weeks): 1.68 mg/kg/day
TD50 (mouse, strain B6C3F1, males, in feed, site: lung, lesion: alveolar/bronchiolar adenoma + alveolar/bronchiolar carcinoma, dosed 80 weeks, study length 90 weeks): 656 mg/kg/day
TD50 (mouse, strain C57BL/10J, males, in feed, site: liver, lesion: several types, types named in the paper, dosed 104 weeks, study length 104 weeks): 13.1 mg/kg/day
TD50 (mouse, strain Charles River CD1, females, in feed, site: liver, lesion: hepatoma, dosed 78 weeks, study length 78 weeks): 71.8 mg/kg/day
TD50 (mouse, strain Charles River CD1, females, in feed, site: liver, lesion: nodular hyperplasia, dosed 78 weeks, study length 78 weeks): 1.78 mg/kg/day
TD50 (mouse, strain Charles River CD1, males, in feed, site: liver, lesion: nodular hyperplasia, dosed 78 weeks, study length 78 weeks): 1.45 mg/kg/day
TD50 (mouse, strain D2B6F1 mice, males, in feed, site: liver, lesion: hepatocellular adenoma, dosed 60 weeks, study length 61 weeks): 2.33 mg/kg/day
TD50 (mouse, strain D2B6F1 mice, males, in feed, site: liver, lesion: hepatocellular adenoma, dosed 69 weeks, study length 69 weeks): 1.29 mg/kg/day
TD50 (mouse, strain D2B6F1 mice, males, in feed, site: liver, lesion: hepatocellular adenoma, dosed 87 weeks, study length 87 weeks): 4.98 mg/kg/day
TD50 (mouse, strain D2B6F1 mice, males, in feed, site: liver, lesion: hepatocellular carcinoma, dosed 60 weeks, study length 61 weeks): 6.09 mg/kg/day
TD50 (mouse, strain D2B6F1 mice, males, in feed, site: liver, lesion: hepatocellular carcinoma, dosed 69 weeks, study length 69 weeks): 3.31 mg/kg/day
TD50 (mouse, strain D2B6F1 mice, males, in feed, site: liver, lesion: hepatocellular carcinoma, dosed 87 weeks, study length 87 weeks): 5.21 mg/kg/day
TD50 (mouse, strain D2B6F1 mice, males, in feed, site: liver, lesion: several types, types named in the paper, dosed 60 weeks, study length 61 weeks): 1.93 mg/kg/day
TD50 (mouse, strain D2B6F1 mice, males, in feed, site: liver, lesion: several types, types named in the paper, dosed 69 weeks, study length 69 weeks): 1.03 mg/kg/day
TD50 (mouse, strain D2B6F1 mice, males, in feed, site: liver, lesion: several types, types named in the paper, dosed 87 weeks, study length 87 weeks): 3.83 mg/kg/day
TD50 (mouse, strain ICR, females, in feed, site: liver, lesion: hepatocellular adenoma, dosed 106 weeks, study length 106 weeks): 19.3 mg/kg/day
TD50 (mouse, strain ICR, females, in feed, site: liver, lesion: hepatocellular carcinoma, dosed 106 weeks, study length 106 weeks): 60 mg/kg/day
TD50 (mouse, strain ICR, females, in feed, site: liver, lesion: several types, types named in the paper, dosed 106 weeks, study length 106 weeks): 13.4 mg/kg/day
TD50 (mouse, strain ICR, males, in feed, site: all sites, lesion: hemangioma, dosed 106 weeks, study length 106 weeks): 4.01 mg/kg/day
TD50 (mouse, strain ICR, males, in feed, site: liver, lesion: hepatocellular adenoma, dosed 106 weeks, study length 106 weeks): 2.98 mg/kg/day
TD50 (mouse, strain ICR, males, in feed, site: liver, lesion: hepatocellular carcinoma, dosed 106 weeks, study length 106 weeks): 7.38 mg/kg/day
TD50 (mouse, strain ICR, males, in feed, site: liver, lesion: several types, types named in the paper, dosed 106 weeks, study length 106 weeks): 1.71 mg/kg/day
TD50 (rat, strain Fischer 344, females, in feed, site: mammary gland, lesion: fibroadenoma, dosed 130 weeks, study length 130 weeks): 0.32 mg/kg/day
TD50 (rat, strain Fischer 344, males, in feed, site: liver, lesion: hepatocellular adenoma, dosed 130 weeks, study length 130 weeks): 15.3 mg/kg/day
TD50 (rat, strain Osborne-Mendel, females, in feed, site: any site (literature study), lesion: several types, types named in the paper, dosed 80 weeks, study length 109 weeks): 18.4 mg/kg/day (inactive)
TD50 (rat, strain Osborne-Mendel, females, in feed, site: liver, lesion: hepatocellular adenoma + hepatocellular carcinoma + neoplastic nodule, dosed 80 weeks, study length 109 weeks): 121 mg/kg/day
TD50 (rat, strain Osborne-Mendel, females, in feed, site: uterus, lesion: adenocarcinoma + sarcoma, dosed 80 weeks, study length 109 weeks): 101 mg/kg/day (inactive)
TD50 (rat, strain Osborne-Mendel, males, in feed, site: all sites, lesion: fibrous histiocytoma, dosed 80 weeks, study length 109 weeks): 42.5 mg/kg/day and 60.4 mg/kg/day (inactive)
TD50 (rat, strain Osborne-Mendel, males, in feed, site: any site (literature study), lesion: several types, types named in the paper, dosed 80 weeks, study length 109 weeks): 21.6 mg/kg/day
TD50 (rat, strain Osborne-Mendel, males, in feed, site: thyroid gland, lesion: follicular-cell adenoma + follicular-cell carcinoma, dosed 80 weeks, study length 109 weeks): 41.6 mg/kg/day (inactive)

CN(N=O)C(=O)c1ccccc1C(=O)N(C)N=O
carcinogen call (rat, strain Wistar, males, by gavage, site: any site (literature study), lesion: several types, types named in the paper, dosed 67 weeks, study length 67 weeks): negative (inactive)

O=C1C=C(N2CC2)C(=O)C(N2CC2)=C1N1CC1
TD50 (rat, strain BR 46, males, i.v., site: any site (literature study), lesion: benign tumor, dosed 52 weeks, study length 104 weeks): 0.032 mg/kg/day
TD50 (rat, strain BR 46, males, i.v., site: any site (literature study), lesion: malignant tumor, dosed 52 weeks, study length 104 weeks): 0.00677 mg/kg/day
TD50 (rat, strain BR 46, males, i.v., site: any site (literature study), lesion: several types, types named in the paper, dosed 52 weeks, study length 104 weeks): 0.00504 mg/kg/day
TD50 (rat, strain BR 46, males, i.v., site: liver, lesion: liver-cell carcinoma, dosed 52 weeks, study length 104 weeks): 0.0653 mg/kg/day
